Patent publication US20130029970A1 (priority 2009, published 2013)
pEC50, pIC50: −log10 of the molar value.

Experiments:
[1] = target: T1, recombinant human cannabinoid receptor CB2 (Homo sapiens, UniProt P34972); assay: Cannabinoid receptor radioligand binding assay, [3H]-CP 55,940 displacement, hCB2
T1 construct: (cDNA clone) CNR0200000
Method in brief: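 Receptor source: membrane pellet (40,000×g) from transfected cells, stored in HEPES pH 7.4/MgCl2/EDTA/sucrose buffer.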

human CB2 receptors = target: T2, human CB2 receptors (Homo sapiens, UniProt P34972); assay: cAMP assay in HEK-293 cells, hCB2 agonist; type: cell-based; conditions: inhibition of forskolin-stimulated cAMP, HEK-293 cells; read-out: hCB2 EC50 (cAMP ag)
T2 construct: (cDNA clone) CNR0200000
T2 sequence (P34972 whole entry): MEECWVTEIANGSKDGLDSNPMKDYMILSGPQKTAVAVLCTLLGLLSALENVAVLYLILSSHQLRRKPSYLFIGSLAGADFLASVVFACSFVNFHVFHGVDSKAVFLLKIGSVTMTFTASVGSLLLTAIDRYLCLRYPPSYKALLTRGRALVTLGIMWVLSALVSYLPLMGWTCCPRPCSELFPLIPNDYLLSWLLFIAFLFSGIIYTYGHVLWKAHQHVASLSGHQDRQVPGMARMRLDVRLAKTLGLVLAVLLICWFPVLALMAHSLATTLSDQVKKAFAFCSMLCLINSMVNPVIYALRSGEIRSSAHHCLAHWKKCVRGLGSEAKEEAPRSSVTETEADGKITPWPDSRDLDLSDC
Method in brief: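 Stable hCB2 HEK-293 cells in HBSS/10 mM HEPES/0.1% fatty-acid-free BSA incubated 30 min at 37° C with compound; forskolin 90 uM in 3× compound mix.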

human CB2 (hCB2) = target: T3, human CB2 (hCB2) (Homo sapiens, UniProt P34972); assay: 35S GTPγS binding assay, hCB2 agonist; type: biochemical; conditions: GTPγS agonist, HEK-293 membranes; read-out: hCB2 EC50 (GTPyS ag)
T3 construct: (cDNA clone) CNR0200000
T3 sequence (P34972 whole entry): as above
Method in brief: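 Agonist-stimulated [35S]GTPγS (0.1 nM) binding measured by scintillation proximity after 90 min at room temperature. Reaction buffer: 50 mM HEPES pH 7.4, 100 mM NaCl, 5 mM MgCl2, 0.001% saponin plus 20 uM GDP. Membranes (5 μg) came from transfected cells expressing hCB2 cDNA (pcDNA3.1+ vector).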

T1 sequence (P34972 whole entry): as above

Structure (SMILES) | pIC50 [1] | pEC50 (human CB2 receptors) | pEC50 (human CB2 (hCB2))
COc1ccc(C(=O)c2cc3cc(C)n(CCN4CCOCC4)c3s2)c(C(F)(F)F)c1 [Compound 119, (4-Methoxy-2-(trifluoromethyl)phenyl)(5-methyl-6-(2-morpholinoethyl)-6H-thieno[2,3-b]pyrrol-2-yl)methanone] | > 7.00 | > 7.00 | > 7.00
COc1ccc(C(=O)c2cc3cc(C)n(CCN4CCOCC4)c3s2)c(OC)c1 [Compound 120, (2,4-Dimethoxyphenyl)(5-methyl-6-(2-morpholinoethyl)-6H-thieno[2,3-b]pyrrol-2-yl)methanone] | > 7.00 | > 7.00 | > 7.00
Cc1ccc(C(=N)c2cc3cc(C)n(CCN4CCOCC4)c3s2)cc1 [Compound 121, (5-methyl-6-(2-morpholinoethyl)-6H-thieno[2,3-b]pyrrol-2-yl)(p-tolyl)methanimine] | 6.00 to 7.00 | > 7.00 | > 7.00
CCOc1ccc(C(=O)c2cc3cc(C)n(CCN4CCOCC4)c3s2)c(Cl)c1 [Compound 126, (2-chloro-4-ethoxyphenyl)(5-methyl-6-(2-morpholinoethyl)-6H-thieno[2,3-b]pyrrol-2-yl)methanone] | > 7.00 | > 7.00 | > 7.00
COc1ccc(C(=O)c2cc3cc(C)n(CCN4CCOCC4)c3s2)cc1F [Compound 128, (3-fluoro-4-methoxyphenyl)(5-methyl-6-(2-morpholinoethyl)-6H-thieno[2,3-b]pyrrol-2-yl)methanone] | 6.00 to 7.00 | 6.00 to 7.00 | > 7.00
Cc1cc2cc(C(=O)c3ccc(C#N)cc3)sc2n1CCN1CCOCC1 [Compound 129, 4-(5-methyl-6-(2-morpholinoethyl)-6H-thieno[2,3-b]pyrrole-2-carbonyl)benzonitrile] | 6.00 to 7.00 | 6.00 to 7.00 | > 7.00
COc1cc(F)ccc1C(=O)c1cc2cc(C)n(CCN3CCOCC3)c2s1 [Compound 133, (4-fluoro-2-methoxyphenyl)(5-methyl-6-(2-morpholinoethyl)-6H-thieno[2,3-b]pyrrol-2-yl)methanone] | > 7.00 | > 7.00 | > 7.00
Cc1cc2cc(C(=O)c3ccc(F)cc3F)sc2n1CCN1CCOCC1 [Compound 135, (2,4-difluorophenyl)(5-methyl-6-(2-morpholinoethyl)-6H-thieno[2,3-b]pyrrol-2-yl)methanone] | 6.00 to 7.00 | > 7.00 | 6.00 to 7.00
COc1ccc(C(=O)c2cc3cc(C)n(CCN4CCOCC4)c3s2)c(C)n1 [Compound 136, (6-methoxy-2-methylpyridin-3-yl)(5-methyl-6-(2-morpholinoethyl)-6H-thieno[2,3-b]pyrrol-2-yl)methanone] | > 7.00 | > 7.00 | > 7.00
COc1ccc(C(O)(c2cc3cc(C)n(CCN4CCOCC4)c3s2)C(F)(F)F)cc1 (stereo not drawn) [Compound 138, 2,2,2-trifluoro-1-(4-methoxyphenyl)-1-(5-methyl-6-(2-morpholinoethyl)-6H-thieno[2,3-b]pyrrol-2-yl)ethanol] | 6.00 to 7.00 | > 7.00 | > 7.00
COc1ccc(C(=O)c2cc3cc(C)n(S(=O)(=O)CCN4CCOCC4)c3s2)cc1 [Compound 139, (4-methoxyphenyl)(5-methyl-6-(2-morpholinoethylsulfonyl)-6H-thieno[2,3-b]pyrrol-2-yl)methanone] | > 7.00 | > 7.00 | > 7.00
COc1ccc(C(c2cc3cc(C)n(CCN4CCOCC4)c3s2)C(F)(F)F)cc1 (stereo not drawn) [Compound 141, 4-(2-(5-methyl-2-(2,2,2-trifluoro-1-(4-methoxyphenyl)ethyl)-6H-thieno[2,3-b]pyrrol-6-yl)ethyl)morpholine] | 6.00 to 7.00 | > 7.00 | 6.00 to 7.00
COc1ccc(C(=O)c2cc3cc(C)n(CCN4CCC(OC)C4)c3s2)cn1 (stereo not drawn) [Compound 147, (6-methoxypyridin-3-yl)(6-(2-(3-methoxypyrrolidin-1-yl)ethyl)-5-methyl-6H-thieno[2,3-b]pyrrol-2-yl)methanone] | 5.00 to 6.00 | 6.00 to 7.00 | 6.00 to 7.00
